Assay results taken from patent US12377175B2, “Trifunctional constructs with tunable pharmacokinetics useful in imaging and anti-tumor therapies” (Cornell University, priority 2016, dated 2025).
Blank lines part the entries; values can stand above or below the molecule they belong to.

Legend:
[1] = Biodistribution / in vivo stability of [225Ac(macropa)]+ compared with 225Ac(NO3)3 and [225Ac(DOTA)]- in C57BL/6 mice; details: for blood clearance and excretion / accumulation of 225Ac in organs: tail vein, 15 min, 1 h, 5 h
Method: C57BL/6 mice were injected via tail vein with 10-50 kBq of each radiometal complex and were sacrificed after 15 min, 1 h, or 5 h.

[2] = system: LNCaP xenograft tumor-bearing mice; test: PET/CT imaging of 66Ga-RPS ligands in LNCaP xenograft mice; format: in vivo, mouse; details: 66Ga PET/CT; for maximum uptake in the tumor (image-derived): over 1, 3, 6 and 24 h post injection
Method: (§1) Inoculation of mice with xenografts: All animal studies were approved by the Institutional Animal Care and Use Committee of Weill Cornell Medicine and were undertaken in accordance with the guidelines set forth by the USPHS Policy on Humane Care and Use of Laboratory Animals. Animals were housed under standard conditions in approved facilities with 12 h light/dark cycles. Food and water was provided ad libitum throughout the course of the studies. Hairless male nu/nu mice were purchased from the Jackson Laboratory. For inoculation in mice, LNCaP cells were suspended at 4×10^7 cells/mL in a 1:1 mixture of PBS:Matrigel (BD Biosciences). Each mouse was injected in the left flank with 0.25 mL of the cell suspension. The mice were imaged when the tumors reached approximately 200-400 mm^3, while biodistributions were conducted when tumors were in the range 100-400 mm^3.
Imaging of ^66Ga-RPS ligands in LNCaP xenograft mice: LNCaP xenograft tumor-bearing mice (2-3 per compound) injected intravenously with a bolus injection of 0.56-5.4 MBq (15-145 μCi) of the ^66Ga-labeled ligand. The specific activity of the tracers was in the range 14.8-47 MBq/μmol (0.4-1.27 mCi/μmol). The mice were imaged using PET/CT (Inveon™; Siemens Medical Solutions, Inc.) at 1, 3, 6 and 24 h post-injection following inhalation anesthetization with isoflurane. Total acquisition time was 30 min for the 1 h, 3 h and 6 h images, and 60 min for 24 h time point. A CT scan was obtained immediately before the acquisition for both anatomical co-registration and attenuation correction. Images were reconstructed using the Inveon™ software supplied by the vendor. Image-derived tumor and kidney uptake was estimated by comparison to a 10% injected dose […] standard introduced into the imaging field of view. The standard was prepared by dilution of 10% of the injected activity to 1 mL with saline. Volumes of interest (VOIs) were drawn with the aid of the CT and confirmed by PET. The contents of the VOIs were integrated and the calculated counts were converted to […] by direct comparison to the aforementioned standard following correction for activity injected.

LNCaP xenograft tumors = test: Therapy study in LNCaP xenograft mice; format: in vivo, mouse; details: for tumors not detectable (<0.5 mm^3): 75 d post injection
Method: as §1, with “xenografts.” for “xenografts:”, “Male BALB/c athymic” for “Hairless male”, “Biodistributions” for “The mice were imaged when the tumors reached approximately 200-400 mm^3, while biodistributions”, “200-800 mm^3, while therapy studies were initiated when tumors were in the range 50-900” for “100-400”
Therapy study in LNCaP xenograft mice. LNCaP xenograft tumor-bearing mice were randomly assigned to 5 groups (7 mice per group). […] The fourth group was injected with the same volume of vehicle. The fifth group was injected with 133 kBq ^225Ac-DOTA-Lys-IPBA. Tumor dimensions were measured and recorded three times weekly with digital calipers, and tumor volumes were calculated using the modified ellipsoid equation, V=0.5*length*width*width. […] Body weight was measured with a digital balance twice weekly, and mice were monitored for signs of distress. The mice were photographed weekly to visually confirm changes in tumor volume.

[3] = system: LNCaP xenograft tumor-bearing mice; test: Biodistribution studies of 177Lu-labeled ligands in LNCaP xenograft mice; format: in vivo, mouse; details: corresponding 177Lu-labeled compound; 4 h p.i. (a)
Method: as §1
Biodistribution studies of 177Lu-labeled ligands in LNCaP xenograft mice: LNCaP xenograft tumor-bearing mice (5 per time point per compound) were injected intravenously with a bolus injection of 348-851 kBq (9.4-23 μCi) and 37-50 ng ([…]) of each ligand. The mice were sacrificed at 4, 24 and 96 h post injection. A blood sample was removed, and a full biodistribution study was conducted on the following organs (with contents): heart, lungs, liver, small intestine, large intestine, stomach, spleen, pancreas, kidneys, muscle, bone and tumor. Tissues were weighed and counted on a 2470 Wizard^2 Automatic Gamma Counter (Perkin Elmer). Counts were corrected for decay and for activity injected, and tissue uptake was expressed as percent injected dose per gram (% ID/g). Standard error measurement was calculated for each data point.

Compound: O=C([O-])CN1CCN(CC(=O)[O-])CCN(CC(=O)[O-])CCN(CC(=O)[O-])CC1.[225Ac+3] [[225Ac(DOTA)]-, reference compound]
blood clearance and excretion [1]: clear more rapidly through the urine

Compound: O=C([O-])c1cccc(CN2CCOCCOCCN(Cc3cccc(C(=O)[O-])n3)CCOCCOCC2)n1.[225Ac+3] [[225Ac(macropa)]+]
in vivo stability of the complex [1]: highly stable in vivo
accumulation of 225Ac in organs [1]: did not accumulate in any organ
blood clearance and excretion [1]: rapidly cleared from mice

Compound: O=[N+]([O-])[O-].O=[N+]([O-])[O-].O=[N+]([O-])[O-].[225Ac] [225Ac(NO3)3, reference compound]
accumulation of 225Ac in organs [1]: large accumulation in the liver and spleen
blood clearance and excretion [1]: slow blood clearance and excretion

Compound: O=C([O-])CN1CCN(CC(=O)[O-])CCN(CC(=O)O)C(Cc2ccc(NC(=S)NCCCC[C@H](NC(=O)CCOCCOCCOCCn3cc(-c4cccc(NC(=O)NCCCC[C@H](NC(=O)N[C@@H](CCC(=O)O)C(=O)O)C(=O)O)c4)nn3)C(=O)N[C@@H](CCCCNC(=O)Cc3ccc(I)cc3)C(=O)O)cc2)CN(CC(=O)[O-])CC1.[66Ga+3] (stereo partly shown) [66Ga-RPS-063]
time of maximum uptake in the tumor [2]: 6 h
tumor uptake (image-derived) ([2]; 24 h post injection): 7.9±3.0 % ID/cm^3
maximum uptake in the tumor (image-derived) [2]: 9.5±2.4 % ID/cm^3

Compound: O=C([O-])CN1CCN(CC(=O)[O-])CCN(CC(=O)O)C(Cc2ccc(NC(=S)NCCCC[C@H](NC(=O)CCOCCOCCOCCOCCn3cc(-c4cccc(NC(=O)NCCCC[C@H](NC(=O)N[C@@H](CCC(=O)O)C(=O)O)C(=O)O)c4)nn3)C(=O)N[C@@H](CCCCNC(=O)Cc3ccc(I)cc3)C(=O)O)cc2)CN(CC(=O)[O-])CC1.[66Ga+3] (stereo partly shown) [66Ga-RPS-061]
kidney uptake (image-derived) ([2]; 1 h post injection): 10.5±2.1 % ID/cm^3
tumor uptake (image-derived) ([2]; 24 h post injection): 6.1±1.1 % ID/cm^3

time of maximum uptake in the tumor [2]: 3 h
tumor uptake (image-derived) ([2]; 24 h post injection): 8.3±2.8 % ID/cm^3
maximum uptake in the tumor (image-derived) [2]: 9.7±2.0 % ID/cm^3
Compound: O=C(O)CCC(NC(=O)NC(CCCCNC(=O)Nc1cccc(-c2cnnn2CC(=O)NC(CCCCNC(=S)Nc2ccc(CC3CN(CC(=O)O)CCN(CC(=O)O)CCN(CC(=O)O)CCN3CC(=O)O)cc2)C(=O)NC(CCCCNC(=O)Cc2ccc(I)cc2)C(=O)O)c1)C(=O)O)C(=O)O (stereo not shown) [66Ga-RPS-068, metal not drawn]

maximum kidney uptake (image-derived) [2]: 0.4±0.1 % ID/cm^3
time of maximum uptake in the tumor [2]: 1 h
kidney uptake (image-derived) ([2]; 24 h post injection): 0.1±0.1 % ID/cm^3
maximum uptake in the tumor (image-derived) [2]: 3.1±0.4 % ID/cm^3
Compound: O=C(O)CCC(NC(=O)NC(CCCCNC(=O)C(Cc1ccc2ccccc2c1)NC(=O)C1CCC(CNC(=O)CN2CCN(CC(=O)O)CCN(CC(=O)O)CCN(CC(=O)O)CC2)CC1)C(=O)O)C(=O)O (stereo not shown) [66Ga-PSMA-617, metal not drawn, reference compound]

Compound: O=C([O-])CN1CCN(CC(=O)[O-])CCN(CC(=O)O)C(Cc2ccc(NC(=S)N[C@@H](CCCCNC(=O)CCCc3ccc(I)cc3)C(=O)O)cc2)CN(CC(=O)[O-])CC1.[225Ac+3] (stereo partly shown) [225Ac-DOTA-Lys-IPBA]
mice surviving the first 21 d (LNCaP xenograft tumors; 133 kBq positive control group): 100%

Compound: O=C([O-])CN1CCN(CC(=O)[O-])CCN(CC(=O)O)C(Cc2ccc(NC(=S)NCCCC[C@H](NC(=O)CCOCCOCCOCCOCCOCCOCCOCCOCCn3cc(-c4cccc(NC(=O)NCCCC[C@H](NC(=O)N[C@@H](CCC(=O)O)C(=O)O)C(=O)O)c4)nn3)C(=O)N[C@@H](CCCCNC(=O)Cc3ccc(I)cc3)C(=O)O)cc2)CN(CC(=O)[O-])CC1.[66Ga+3] (stereo partly shown) [66Ga-RPS-066]
time of maximum uptake in the tumor [2]: 3 h
kidney uptake (image-derived) ([2]; 24 h post injection): 0.2±0.1 % ID/cm^3
tumor uptake (image-derived) ([2]; 24 h post injection): 5.5±0.4 % ID/cm^3
maximum uptake in the tumor (image-derived) [2]: 7.8±0.7 % ID/cm^3

Max. Tumor Uptake [3]: 7.6 ± 1.2 % ID/g
Compound: O=C(O)CC[C@H](NC(=O)N[C@@H](CCCCNC(=O)Nc1cccc(-c2cnnn2CCOCCOCCOCCOCCOCCOCCOCCOCCOCCOCCOCCOCCC(=O)N[C@@H](CCCCNC(=S)Nc2ccc(CC3CN(CC(=O)O)CCN(CC(=O)O)CCN(CC(=O)O)CCN3CC(=O)O)cc2)C(=O)N[C@@H](CCCCNC(=O)Cc2ccc(I)cc2)C(=O)O)c1)C(=O)O)C(=O)O (stereo partly drawn) [RPS-067, (((1S)-1-carboxy-5-(3-(3-(1-((41S,44S)-44-carboxy-51-(4-iodophenyl)-39,42,50-trioxo-41-(4-(3-(4-((1,4,7,10-tetrakis(carboxymethyl)-1,4,7,10-tetraazacyclododecan-2-yl)methyl)phenyl)thioureido)butyl)-3,6,9,12,15,18,21,24,27,30,33,36-dodecaoxa-40,43,49-triazahenpentacontyl)-1H-1,2,3-triazol-5-yl)phenyl)ureido)pentyl)carbamoyl)-L-glutamic acid]

Compound: O=C(O)CC[C@H](NC(=O)N[C@@H](CCCCNC(=O)Nc1cccc(-c2cn(CCOCCOCCOCCC(=O)N[C@@H](CCCCNC(=S)Nc3cc(CN4CCOCCOCCN(Cc5cccc(C(=O)[O-])n5)CCOCCOCC4)nc(C(=O)[O-])c3)C(=O)NCCOCCOCCOCCOCCOCCOCCOCCOCCC(=O)N[C@@H](CCCCNC(=O)CCCc3ccc(I)cc3)C(=O)O)nn2)c1)C(=O)O)C(=O)O.[225Ac+3] [225Ac-RPS-074]
mice surviving the first 21 d (LNCaP xenograft tumors; 37 kBq group): 100%
tumor growth rate (LNCaP xenograft tumors; 37 kBq treatment group): appeared to grow at a similar rate to the untreated tumors
tumors not detectable (<0.5 mm^3) (LNCaP xenograft tumors; 74 kBq group, 1/7): 14%
tumor volumes that began to increase again (LNCaP xenograft tumors; 74 kBq group, after 42 d, 6/7): 86%
time over which tumor volume decreased (LNCaP xenograft tumors; 74 kBq group, post injection): ≤ 42 days
mice with tumor volume less than 1 mm^3 (LNCaP xenograft tumors; 74 kBq group, up to 42 days p.i., 5/7): 71%
antitumor effect (LNCaP xenograft tumors; 138 kBq and 74 kBq): significant antitumor effect
survival of the 75 d study (LNCaP xenograft tumors; 138 kBq treatment group): Every mouse in the 138 kBq treatment group survived
tumors not detectable (<0.5 mm^3) (LNCaP xenograft tumors; 138 kBq treatment group, 6/7): 86%

Compound: O=C([O-])CN1CCN(CC(=O)[O-])CCN(CC(=O)O)C(Cc2ccc(NC(=S)NCCCC[C@H](NC(=O)CCOCCOCCOCCOCCOCCOCCn3cc(-c4cccc(NC(=O)NCCCC[C@H](NC(=O)N[C@@H](CCC(=O)O)C(=O)O)C(=O)O)c4)nn3)C(=O)N[C@@H](CCCCNC(=O)Cc3ccc(I)cc3)C(=O)O)cc2)CN(CC(=O)[O-])CC1.[66Ga+3] (stereo partly shown) [66Ga-RPS-069]
tumor uptake (image-derived) ([2]; 24 h post injection): 7.0±3.9 % ID/cm^3
